The subject of data set [1] is col6a1 zebrafish morphants. Put plainly: Birefringence (muscle structure) in col6a1 zebrafish morphants. It counts as in vivo. Conditions: 48 hpf. As to the method:
Muscle structure was assessed by birefringence analysis at 48 hpf, a time when muscle tissue is fully developed and organized muscle fibers start to show anisotropic features. A high percentage of severe birefringence abnormality (>75%, FIG. 6C) was detected in col6a1 morphants, indicating major defects of muscle fiber development and organization.
Morpholino antisense injection and treatment. Knock-down of col6a1 gene expression was obtained with a previously published morpholino ^[25] with sequence GAGAGCGGAAGACGAACCTTCATTC (SEQ ID NO: 2; GeneTools, Inc.). A control morpholino with no sequence homology in the zebrafish genome was used in parallel (CCTCTTACCTCAGTTACAATTTATA; SEQ ID NO: 3). Zebrafish eggs from wild-type matings were injected at the 1-2 cell stage with approximately 10 nL of 0.1 mm morpholino solution (corresponding to 4 ng of morpholino) using a WPI pneumatic PicoPump PV820 injector (World Precision Instruments, Inc.). […]
Birefringence. Muscle structure was monitored by birefringence analysis, taking advantage of muscle anisotropy, which is the ability of muscle fibers to refract polarized light. […] With this set-up, light refracted by muscle fibers (due to the pseudo-crystalline array of sarcomeres) is transmitted and analyzed. Integrated area of birefringence was calculated using ImageJ software. […]

Data set [2] relates to col6a1 zebrafish morphants. Nature of the data set: Spontaneous coiling events in col6a1 zebrafish morphants. The format is in vivo. Conditions: 24 hpf, 3 hours of treatment, 0.1, 1 or 10 μm. As for the experimental part: (§1) Zebrafish embryos were injected with col6a1 morpholino at the 1-cell stage, dechorionated at 20 hpf and treated at 21 hpf with 0.1, 1 or 10 μm of either TR001 or 63. DMSO-treated embryos injected with a scrambled morpholino were used as a control. […] It should be noted that in these protocols, embryos were exposed to drugs for a longer period of time than in the spontaneous coiling experiments. This difference may help to explain why TR001 was as effective at 0.1 μm as it was at 1 and 10 μm.
Morpholino antisense injection and treatment. Knock-down of col6a1 gene expression was obtained with a previously published morpholino ^[25] with sequence GAGAGCGGAAGACGAACCTTCATTC (SEQ ID NO: 2; GeneTools, Inc.). A control morpholino with no sequence homology in the zebrafish genome was used in parallel (CCTCTTACCTCAGTTACAATTTATA; SEQ ID NO: 3). […]
Motor activity. The number of spontaneous coiling events performed in 15 seconds by single zebrafish embryos was recorded at 24 hpf by light microscopy. Touch-evoked escape responses were recorded at 48 hpf by observing the ability of zebrafish embryos to escape after a tail-touch with a little tip. […]

The test system of data set [3] is col6a1 zebrafish morphants. Nature of the data set: Touch-evoked escape response in col6a1 zebrafish morphants. Conditions: 48 hpf. It counts as in vivo. As to the method: as §1
(§2) Morpholino antisense injection and treatment. Knock-down of col6a1 gene expression was obtained with a previously published morpholino ^[25] with sequence GAGAGCGGAAGACGAACCTTCATTC (SEQ ID NO: 2; GeneTools, Inc.). A control morpholino with no sequence homology in the zebrafish genome was used in parallel (CCTCTTACCTCAGTTACAATTTATA; SEQ ID NO: 3). Zebrafish eggs from wild-type matings were injected at the 1-2 cell stage with approximately 10 nL of 0.1 mm morpholino solution (corresponding to 4 ng of morpholino) using a WPI pneumatic PicoPump PV820 injector (World Precision Instruments, Inc.). Zebrafish embryos were dechorionated at 20 hours post fertilization (hpf) and treated at 21 hpf with increasing doses (0.1, 1 and 10 μm) of both TR001 and 63 compounds dissolved in fish water with 1% DMSO (vehicle).
Motor activity. The number of spontaneous coiling events performed in 15 seconds by single zebrafish embryos was recorded at 24 hpf by light microscopy. Touch-evoked escape responses were recorded at 48 hpf by observing the ability of zebrafish embryos to escape after a tail-touch with a little tip. Embryos were subdivided in 4 groups according to the observed phenotype: paralyzed embryos, score 0; underdeveloped embryos showing only coiling events, score 1; embryos showing lower motility, score 2; normal embryos, score 3.

The test system of data set [4] is col6a1 zebrafish morphants. Put plainly: Survival of col6a1 zebrafish morphants. The format is in vivo.
Excerpt: In FIG. 6D, the left panel represents data from embryos injected with a scrambled morpholino (scrd_MO, open squares), Exon 9 col6a1 morpholino (col6a1_MO, closed squares) and col6a1_MO embryos treated with TR001 at 0.1 μm (open circles), 1.0 μm (open triangles), 10 μm (open diamonds). Right panel represents data from embryos injected with a scrambled morpholino (scrd_MO, open squares), Exon 9 col6a1 morpholino (col6a1_MO, closed squares) and col6a1_MO embryos treated with 63 at […] (closed circles), 1.0 μm (closed triangles), 10 μm (closed diamonds). Embryos were treated with oligomycin, FCCP, rotenone (R) and antimycin A (A) as indicated. Results are presented as mean±SEM. Both graphs report data from 5 independent experiments with n=20 for each treatment. Error bars are reported as SEM. FIG. 6E, Survival of DMSO-treated zebrafish injected with the scrambled morpholino (open squares), DMSO-treated col6a1 morphants (closed squares) and col6a1 morphants treated with TR001 (0.1 μm, open triangles; 1.0 μm, open circles; 10 μm, open diamonds) or 63 (0.1 μm, closed triangles; 1.0 μm, closed circles; 10 μm, closed diamonds) were recorded for 30 days. Treatment started at 21 hpf and repeated at 4 dpf (arrows). Data report the percentage of surviving fish and are mean±SEM from 3 independent experiments (n=15 for each condition in each set).
Finally, fish survival was also assessed. Fifty percent of col6a1 morphant embryos treated with 0.1 μm of TR001 survived 7 days longer than col6a1 morphants treated with DMSO (p<0.0001 from 3 to 12 dpf), and 20% were still alive at 30 dpf (i.e., after 29 days of treatment) (FIG. 6E).
as §2
Survival. Zebrafish survival was monitored every 3 days for 30 days. Drug treatment with both TR001 and 63 dissolved in fish water with 1% DMSO started at 21 hpf. After 3 days of treatment (4 days post fertilization, dpf), zebrafish were moved to a bigger tank (50 mL) with fresh compounds dissolved in 1% DMSO. As a control vehicle, fish water with 1% DMSO was used.

Data set [5] is described as follows: Plasma stability determination in mouse plasma. The format is in vitro ADME. The note with it: mouse, plasma, read-out: half-life (t1/2) in plasma. As to the method: Plasma stability determination. The degradation of TR001 in the presence of mouse plasma (from Innovative Research) was used to predict the plasma stability of the compound to esterase catalyzed hydrolysis. A positive control for plasma cholinesterase, propantheline bromide, was included in all assays. Briefly, murine plasma was incubated with 1 μm TR001. Aliquots were removed at t=0, 5, 15, 30, and 60 and 120 min and quenched with acetonitrile containing structurally related compound (TR073) as the internal standard. The amount of TR001 remaining in the supernatant was assessed by LC-MS/MS in multiple reaction monitoring mode (MRM) using a 4000 QTRAP (SCIEX) with electrospray ionization source. The instrument was operated in negative mode with source parameters: source voltage […], GS1 50, GS2 50, CUR 30, TEM 650 and CAD gas MED. Optimal MRM transitions were obtained by direct infusion of the pure compound into the source. The mass spectrometer was interfaced to a Shimadzu (Columbia, MD) SIL-20AC XR auto-sampler maintained at 35° C. followed by 2 LC-20AD XR LC pumps. The internal standard and compound of interest were resolved using a Gemini-NX C18 50×2.1 mm column (Phenomenex) with 0.1% formic acid (solvent A) and 0.1% formic acid in acetonitrile (solvent B). The injection volume was 10 μL at a flow rate of 0.75 mL/min. The gradient elution was 10% B to 95% B over 5 min and held at 95% for 1 min before returning to start conditions. The column was maintained at 40° C. using a Shimadzu CTO-20AC column oven. Data were acquired using Analyst 1.6.2 and analyzed using Multiquant 3.0.1 software. The first-order rate constant for substrate depletion was determined from a linear least squares fit of the natural log of the percent parent compound remaining versus time. The rate constant was used to calculate the plasma half-life as an indicator of stability.

Molecules are shown by their SMILES.

The values that follow come from patent US12398110B2, “Second generation inhibitors of mitochondrial permeability transition pore with improved plasma stability” (Oregon Health & Science University, priority 2019, dated 2025).

Regarding `Cc1ccc(Cl)cc1NC(=O)c1cc(-c2ccc(F)c(O)c2)on1` [Compound 63, reference compound], the “muscle structure by birefringence” value in data set [1] was “minimal effect”. In addition, the spontaneous coiling events entry in data set [2] is on record as “no effect”. Further, the “touch-evoked escape response (motility)” value in data set [3] (0.1-1.0 μM) was “minimal recovery”; in data set [3] (10 μm), “no longer seen”. Besides, the “survival (in words)” value in data set [4] (1 μm) is “ineffected”; in data set [4] (10 μm), “ineffected”; in data set [4] (lowest concentration tested (0.1 μm)), “decreased activity compared to TR001”. The half-life at 1 µM in data set [5] came out at 21 min.
